The subject of this data set is MCF-7 cells. The experiment in a line: Cytotoxicity study of DOX loaded shells vs free doxorubicin solution and empty shells. Particulars: 5 days.

Experimental: Human breast cancer MCF-7 cells were obtained from ATCC.
Free DOX solution, DOX-loaded shells, and empty shells of different concentrations were used in cell cytotoxicity studies for 5 days.
A cytotoxicity study of DOX loaded shells was carried out in vitro as compared to free doxorubicin solution (FIG. 13).
All samples were incubated in culture media for 5 days.

Turning to `COc1cccc2c1C(=O)c1c(O)c3c(c(O)c1C2=O)C[C@@](O)(C(=O)CO)C[C@@H]3O[C@H]1C[C@H](N)[C@H](O)[C@H](C)O1.Cl` [Doxorubicin solution, Doxorubicin], the “cytotoxicity compared to free DOX solution” value is given as “strongest cytotoxicity”.

The values above are taken from patent publication US20050058603A1, “Drug delivery system based on polymer nanoshells” (Case Western Reserve University, priority 2003, published 2005).
